Results on 27 molecules are retold here after patent US20080267942A1, “BENZAZEPIN-2(1H)-ONE DERIVATIVES” (Pfizer Limited, priority 2006, published 2008).

The target in test [1] is T1, porcine beta-2 adrenoceptor (Sus scrofa, UniProt Q28997).
T1 construct: expressed in transfected cells; host or cells: CHO cells
Briefly: cAMP assay in CHO cells transfected with the porcine beta-2 adrenoceptor (DiscoveRx Hit Hunter cAMP II). The format is cell-based. As to conditions: CHO cells transfected with porcine beta-2 adrenoceptor, 30 minutes incubation with compound. As to the method:
(§1) CHO cells transfected with the bovine or porcine beta-2 adrenceptors were maintained in culture in DMEM/HAMS F12+10% FBS+2 mM glutamine+500 μg/ml geneticin (for the porcine receptor the medium was supplement with 1.5 mM HEPES) at 37° C. with a 5% CO2 atmosphere.
(§2) Cells were plated into 96 well viewplates in medium and incubated overnight at 37° C. with a 5% CO2 atmosphere. The cells were pre-incubated with 0.5 mM IBMX in PBS for 30 minutes prior to incubation with increasing concentrations of experimental compound (5×10^−12 to 10^−5M) for 30 minutes at 37° C. with a 5% CO2 atmosphere. At the end of the incubation time the compound was removed and the cells assayed for cAMP using the DiscoveRx Hit Hunter cAMP II™ assay kit.
(§3) Duplicate samples were run for each experimental compound and the data generated was analysed using EC50 analysis software in Graphpad Prism.
On the technique in general: Cyclic AMP is a second messenger, typically raised through Gs and lowered through Gi signalling.

Test [2] has as its target T2, bovine beta-2 adrenoceptor (Bos taurus, UniProt Q28044).
T2 construct: expressed in transfected cells; host or cells: CHO cells
The test can be described thus: cAMP assay in CHO cells transfected with the bovine beta-2 adrenoceptor (DiscoveRx Hit Hunter cAMP II). As to conditions: CHO cells transfected with bovine beta-2 adrenoceptor, 30 minutes incubation with compound. It counts as cell-based. As to the method: as §1, §2, §3

By EC50 is commonly meant the concentration at which the effect is half-maximal.

Structures are written as SMILES.

T1 sequence (Q28997 whole entry): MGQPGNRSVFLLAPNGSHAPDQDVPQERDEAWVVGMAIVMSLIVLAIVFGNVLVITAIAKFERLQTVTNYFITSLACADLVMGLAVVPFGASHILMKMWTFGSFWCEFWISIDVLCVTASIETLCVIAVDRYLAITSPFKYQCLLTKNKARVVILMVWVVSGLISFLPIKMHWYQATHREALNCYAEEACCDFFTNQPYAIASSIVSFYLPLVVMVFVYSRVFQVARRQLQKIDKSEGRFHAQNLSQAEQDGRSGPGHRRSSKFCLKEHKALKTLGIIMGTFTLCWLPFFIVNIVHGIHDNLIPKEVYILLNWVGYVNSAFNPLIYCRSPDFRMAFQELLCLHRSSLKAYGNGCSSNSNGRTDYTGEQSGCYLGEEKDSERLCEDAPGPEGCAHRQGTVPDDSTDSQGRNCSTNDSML
T2 sequence (Q28044 whole entry): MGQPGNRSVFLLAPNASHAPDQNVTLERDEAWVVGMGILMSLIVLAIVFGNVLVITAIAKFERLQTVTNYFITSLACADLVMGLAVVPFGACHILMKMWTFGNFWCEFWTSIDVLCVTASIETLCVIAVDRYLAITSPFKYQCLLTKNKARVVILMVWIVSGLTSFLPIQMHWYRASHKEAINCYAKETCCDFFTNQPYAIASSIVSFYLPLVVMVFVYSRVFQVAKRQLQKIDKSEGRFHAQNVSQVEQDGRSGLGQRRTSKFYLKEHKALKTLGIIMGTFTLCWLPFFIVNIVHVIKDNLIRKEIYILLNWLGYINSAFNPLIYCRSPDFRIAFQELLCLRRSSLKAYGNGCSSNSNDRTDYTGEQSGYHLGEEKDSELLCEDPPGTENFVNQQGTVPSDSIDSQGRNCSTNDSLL

As to `CC(CCc1cccc2cc[nH]c12)N[C@@H]1CCn2c(=O)[nH]c3cccc(c32)[C@H]1O` (single isomer, unassigned) [Example 38a, 7-Hydroxy-6-{[3-(1H-indol-7-yl)-1-methylpropyl]amino}-4,5,6,7-tetrahydroimidazo[4,5,1-jk][1]benzazepin-2(1H)-one], the EC50 in test [1] was 79 nM; in test [2], 44 nM.

As for `CC(CCc1c[nH]c2ccc(OCc3ccccc3)cc12)N[C@@H]1CCn2c(=O)[nH]c3cccc(c32)[C@H]1O` (mixture of isomers) [Example 17, 6-({3-[5-(Benzyloxy)-1H-indol-3-yl]-1-methylpropyl}amino)-7-hydroxy-4,5,6,7-tetrahydroimidazo[4,5,1-jk][1]benzazepin-2(1H)-one], the EC50 in test [1] came out at 33 nM; in test [2], 25 nM.

In the case of `CC(CCc1ccc[nH]c1=O)NC1CCn2c(=O)[nH]c3cccc(c32)C1O` (stereo not drawn) [Example 36, 7-Hydroxy-6-{[1-methyl-3-(2-oxo-1,2-dihydropyridin-3-yl)propyl]amino}-4,5,6,7-tetrahydroimidazo[4,5,1-jk][1]benzazepin-2(1H)-one], the EC50 in test [1] came to 56 nM; in test [2], 59 nM.

As for `CC(CCc1c[nH]c2ccncc12)N[C@@H]1CCn2c(=O)[nH]c3cccc(c32)[C@H]1O` (single isomer, unassigned) [Example 62], the EC50 in test [1] came to 28 nM; in test [2] it was 35 nM.

Turning to `O=c1[nH]c2cccc3c2n1CCC(NCCCc1c[nH]c2ccccc12)C3O` (stereo not drawn) [Example 19, 7-Hydroxy-6-{[3-(1H-indol-3-yl)propyl]amino}-4,5,6,7-tetrahydroimidazo[4,5,1-jk][1]benzazeopin-2(1H)-one], the EC50 came out at 65 nM in test [1] and 50 nM in test [2].

For `CC(CCc1cc(F)cc2cc[nH]c12)N[C@@H]1CCn2c(=O)[nH]c3cccc(c32)[C@H]1O` (mixture of isomers) [Example 1a, 6-{[3-(5-Fluoro-1H-indol-7-yl)-1-methylpropyl]amino}-7-hydroxy-4,5,6,7-tetrahydroimidazo[4,5,1-jk][1]benzazepin-2(1H)-one], the values for the EC50 in test [1] and in test [2] were 1.4 nM and 0.5 nM, respectively.

With `CC(CCc1ccc(C(=O)O)o1)N[C@@H]1CCn2c(=O)[nH]c3cccc(c32)[C@H]1O` (mixture of isomers) [Example 2, 5-(3-{[7-Hydroxy-2-oxo-1,2,4,5,6,7-hexahydroimidazo[4,5,1-jk][1]benzazepin-6-yl]amino}butyl)-2-furoic acid], the EC50 in test [1] stood at 31 nM; in test [2] it was 171 nM.

Take `O=c1[nH]c2cccc3c2n1CC[C@@H](NCCc1c[nH]c2ccccc12)[C@@H]3O` (racemic) [Example 40b]: the EC50 in test [1] was determined as 28 nM; in test [2], 550 nM.

Consider `CC(CCc1cn(Cc2ccccc2)c2ccccc12)N[C@@H]1CCn2c(=O)[nH]c3cccc(c32)[C@H]1O` (mixture of isomers) [Example 18, 6-{[3-(1-Benzyl-1H-indol-3-yl)-1-methylpropyl]amino}-7-hydroxy-4,5,6,7-tetrahydroimidazo[4,5,1-jk][1]benzazepin-2(1H)-one], for which the EC50 in test [1] worked out at 98 nM; in test [2], 218 nM.

Consider `CC(CCc1c[nH]c2cccnc12)N[C@@H]1CCn2c(=O)[nH]c3cccc(c32)[C@H]1O` (single isomer, unassigned) [Example 55], for which the EC50 in test [1] is 9.9 nM; in test [2], 4.4 nM.

Turning to `CC(CCc1cn(C)c2ccccc12)NC1CCn2c(=O)[nH]c3cccc(c32)C1O` (stereo not drawn) [Example 14a, 7-Hydroxy-6-{[1-methyl-3-(1-methyl-1H-indol-3-yl)propyl]amino}-4,5,6,7-tetrahydroimidazo[4,5,1-jk][1]benzazepin-2(1H)-one], the EC50 in test [1] came out at 26 nM; in test [2] it was 18 nM.

Turning to `CC(CCc1c[nH]c2ccncc12)N[C@@H]1CCn2c(=O)[nH]c3cccc(c32)[C@H]1O` (single isomer, unassigned) [Example 31b, 7-Hydroxy-6-{[1-methyl-3-(1H-pyrrolo[3,2-c]pyridin-3-yl)propyl]amino}-4,5,6,7-tetrahydroimidazo[4,5,1-jk][1]benzazepin-2(1H)-one], the EC50 was 43 nM in test [1] and 58 nM in test [2].

Regarding `CC(CCc1c[nH]c2ccc(C#N)cc12)N[C@@H]1CCn2c(=O)[nH]c3cccc(c32)[C@H]1O` (mixture of isomers) [Example 29, 3-(3-{[7-Hydroxy-2-oxo-1,2,4,5,6,7-hexahydroimidazo[4,5,1-jk][1]benzazepin-6-yl]amino}butyl)-1H-indole-5-carbonitrile], the 50% effective concentration (EC50) is 127 nM in test [1] and 83 nM in test [2].

Turning to `CC(CCc1cncs1)N[C@@H]1CCn2c(=O)[nH]c3cccc(c32)[C@H]1O` (single isomer, unassigned) [Example 49], the EC50 in test [1] is 6.4 nM; in test [2], 4.7 nM.

On to `CC(CCc1nc2ccccc2[nH]1)NC1CCn2c(=O)[nH]c3cccc(c32)C1O` (stereo not drawn) [Example 12, 6-{[3-(1H-Benzimidazol-2-yl)-1-methylpropyl]amino}-7-hydroxy-4,5,6,7-tetrahydroimidazo[4,5,1-jk][1]benzazepin-2(1H)-one], for which the EC50 was found to be 53 nM in test [1] and 34 nM in test [2].

In the case of `CC(CCc1c[nH]c2ccccc12)NC1CCn2c(=O)[nH]c3cccc(c32)C1O` (single isomer, unassigned) [Example 4b, 7-Hydroxy-6-{[3-(1H-indol-3-yl)-1-methylpropyl]amino}-4,5,6,7-tetrahydroimidazo[4,5,1-jk][1]benzazepin-2(1H)-one], the EC50 in test [1] was determined as 6.9 nM; in test [2] it was 3.8 nM.

With `CC(CCn1ccnc1)N[C@@H]1CCn2c(=O)[nH]c3cccc(c32)[C@H]1O` (mixture of isomers) [Example 30, 7-Hydroxy-6-{[3-(1H-imidazol-1-yl)-1-methylpropyl]amino}-4,5,6,7-tetrahydroimidazo[4,5,1-jk][1]benzazepin-2(1H)-one], the EC50 in test [1] is 3.8 nM; in test [2] it was 48 nM.

With `CC(CCc1cccc(=O)[nH]1)N[C@@H]1CCn2c(=O)[nH]c3cccc(c32)[C@H]1O` (mixture of isomers) [Example 7a, 7-Hydroxy-6-{[1-methyl-3-(6-oxo-1,6-dihydropyridin-2-yl)propyl]amino}-4,5,6,7-tetrahydroimidazo[4,5,1-jk][1]benzazepin-2(1H)-one], the half-maximal effective concentration (EC50) in test [1] turned out to be 5.5 nM; in test [2] it was 4.6 nM.

On to `CC(CC(C)(C)c1cn(C)c2ccccc12)N[C@@H]1CCn2c(=O)[nH]c3cccc(c32)[C@H]1O` (mixture of isomers) [Example 20, 6-{[1,3-Dimethyl-3-(1-methyl-1H-indol-3-yl)butyl]amino}-7-hydroxy-4,5,6,7-tetrahydroimidazo[4,5,1-jk][1]benzazepin-2(1H)-one], for which the EC50 in test [1] came to 36 nM; in test [2] it was 157 nM.

Turning to `Cc1c(CC[C@@H](C)N[C@@H]2CCn3c(=O)[nH]c4cccc(c43)[C@H]2O)cnn1C` [Example 53, (6R,7R)-6-{[(1R)-3-(1,5-Dimethyl-1H-pyrazol-4-yl)-1-methylpropyl]amino}-7-hydroxy-4,5,6,7-tetrahydroimidazo[4,5,1-jk][1]benzazepin-2(1H)-one], the EC50 in test [1] amounted to 2.8 nM; in test [2] it was 2 nM.

In the case of `CC(CCc1c[nH]c2cnccc12)N[C@@H]1CCn2c(=O)[nH]c3cccc(c32)[C@H]1O` (single isomer, unassigned) [Example 57], the figures for the EC50 in test [1] and in test [2] were 13 nM and 5.7 nM, respectively.

Turning to `Cc1cc(C)n(CCC(C)N[C@@H]2CCn3c(=O)[nH]c4cccc(c43)[C@H]2O)n1` (single isomer, unassigned) [Example 64], the EC50 in test [1] was found to be 188 nM; in test [2], 169 nM.

Take `CC(CCc1c[nH]c2ccncc12)NC1CCn2c(=O)[nH]c3cccc(c32)C1O` (stereo not drawn) [Example 31a, 7-Hydroxy-6-{[1-methyl-3-(1H-pyrrolo[3,2-c]pyridin-3-yl)propyl]amino}-4,5,6,7-tetrahydroimidazo[4,5,1-jk][1]benzazepin-2(1H)-one]: the results for the concentration giving a half-maximal response (EC50) in test [1] and in test [2] were 146 nM and 197 nM, respectively.

Consider `CC(CCc1cscn1)N[C@@H]1CCn2c(=O)[nH]c3cccc(c32)[C@H]1O` (mixture of isomers) [Example 26, 7-Hydroxy-6-{[1-methyl-3-(1,3-thiazol-4-yl)propyl]amino}-4,5,6,7-tetrahydroimidazo[4,5,1-jk][1]benzazepin-2(1H)-one], for which the EC50 in test [1] was 742 nM; in test [2], 345 nM.

Turning to `Cc1ncc(CCC(C)N[C@@H]2CCn3c(=O)[nH]c4cccc(c43)[C@H]2O)s1` (single isomer, unassigned) [Example 28b, 7-Hydroxy-6-{[1-methyl-3-(2-methyll-1,3-thiazol-5-yl)propyl]amino}-4,5,6,7-tetrahydroimidazo[4,5,1-jk][1]benzazepin-2(1H)-one], the EC50 in test [1] was greater than 10000 nM; in test [2] it was 6.6 nM.

Take `CC(CCc1cncc(N)c1)N[C@@H]1CCn2c(=O)[nH]c3cccc(c32)[C@H]1O` (single isomer, unassigned) [Example 45]: the EC50 is 1.1 nM in test [1] and 1.4 nM in test [2].

With `CC(CCc1ccncc1)N[C@@H]1CCn2c(=O)[nH]c3cccc(c32)[C@H]1O` (mixture of isomers) [Example 27, 7-Hydroxy-6-[(1-methyl-3-pyridin-4-ylpropyl)amino]-4,5,6,7-tetrahydroimidazo[4,5,1-jk][1]benzazepin-2(1H)-one], the concentration giving a half-maximal response (EC50) is 53 nM in test [1] and 77 nM in test [2].
